The source of these data is patent publication US11834434B2, “Substituted 2-heteroaryloxypyridines and salts thereof and their use as herbicidal agents” (Bayer Aktiengesellschaft, priority 2018, dated 2023).

What all share (assay type): in vivo
Assay [1] deals with Stellaria media (STEME). The assay is described as follows: Post-emergence herbicidal action against Stellaria media. To be noted: 1280 g/ha; rated visually after about 3 weeks vs untreated controls; 100% = plants have died, 0% = like control plants. An outline of the steps:
(§1)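 Weeds sown in sandy loam, grown in greenhouse and treated at one-leaf stage (2–3 weeks after sowing) with WP or EC formulations as aqueous spray plus 0.5% additive at 600 L/ha water. Application rate 1280 g/ha. Visual rating after about 3 weeks versus untreated controls (100% = plants dead, 0% = like control).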

The test system of another assay is Lolium rigidum (LOLRI). The assay is described as follows: Pre-emergence herbicidal action against Lolium rigidum. To be noted: 1280 g/ha; scored visually after about 3 weeks vs untreated controls; 100% = plants have died, 0% = like control plants. An outline of the steps:
(§2)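 Greenhouse pot test in sandy loam with seeds covered by soil, then treated on the soil surface at an application rate equivalent to 1280 g/ha (WP/EC, 0.5% additive, 600 L/ha water). Percent activity, where 100% means dead plants, was assessed by eye against untreated controls at around 3 weeks.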

For assay [2], the system named is Amaranthus retroflexus (AMARE). The assay is described as follows: Pre-emergence herbicidal action against Amaranthus retroflexus. The note with it: 1280 g/ha; scored visually after about 3 weeks vs untreated controls; 100% = plants have died, 0% = like control plants. An outline of the steps:
as §2

The subject of the next assay is Setaria viridis (SETVI). The assay is described as follows: Pre-emergence herbicidal action against Setaria viridis. To be noted: 1280 g/ha; scored visually after about 3 weeks vs untreated controls; 100% = plants have died, 0% = like control plants. An outline of the steps:
as §2

In assay [3] the test system is Abutilon theophrasti (ABUTH). Description: Post-emergence herbicidal action against Abutilon theophrasti. The note with it: 1280 g/ha; rated visually after about 3 weeks vs untreated controls; 100% = plants have died, 0% = like control plants. How it is done: (§3) Seeds of mono- and dicotyledonous weed plants were placed in plastic pots in sandy loam soil (doubly sown with in each case one species of mono- or dicotyledonous weed plants per pot), covered with soil and cultivated in a greenhouse under controlled growth conditions. 2 to 3 weeks after sowing, the test plants were treated at the one-leaf stage. The compounds of the invention, formulated in the form of wettable powders (WP) or as emulsion concentrates (EC), were applied onto the green parts of the plants as aqueous suspension or emulsion with addition of 0.5% additive at a water application rate of 600 liters per hectare (converted). After the test plants had been kept in the greenhouse under optimum growth conditions for about 3 weeks, the activity of the preparations was rated visually in comparison to untreated controls. For example, 100% activity=the plants have died, 0% activity=like control plants. Tables B1 to B8 below show the effects of selected compounds of the general formula (I) according to Table 1 on various harmful plants and an application rate corresponding to 1280 g/ha, which were obtained by the experimental procedure mentioned above.

The test system of assay [4] is Echinochloa crus-galli (ECHCG). The assay is described as follows: Pre-emergence herbicidal action against Echinochloa crus-galli. The note with it: 1280 g/ha; scored visually after about 3 weeks vs untreated controls; 100% = plants have died, 0% = like control plants. The method, boiled down: as §2
The subject of assay [5] is Poa annua (POAAN). The assay is described as follows: Pre-emergence herbicidal action against Poa annua. To be noted: 1280 g/ha; scored visually after about 3 weeks vs untreated controls; 100% = plants have died, 0% = like control plants. An outline of the steps:
as §2

Assay [6] has as its system Abutilon theophrasti (ABUTH). Description: Pre-emergence herbicidal action against Abutilon theophrasti. To be noted: 1280 g/ha; scored visually after about 3 weeks vs untreated controls; 100% = plants have died, 0% = like control plants. An outline of the steps:
as §2

The subject of assay [7] is Matricaria inodora (MATIN). The assay is described as follows: Post-emergence herbicidal action against Matricaria inodora. The note with it: 1280 g/ha; rated visually after about 3 weeks vs untreated controls; 100% = plants have died, 0% = like control plants; column head prints STEME. How it is done: as §3
The subject of assay [8] is Echinochloa crus-galli (ECHCG). Description: Post-emergence herbicidal action against Echinochloa crus-galli. The note with it: 1280 g/ha; rated visually after about 3 weeks vs untreated controls; 100% = plants have died, 0% = like control plants. The method, then:
as §3

The subject of assay [9] is Amaranthus retroflexus (AMARE). The assay is described as follows: Post-emergence herbicidal action against Amaranthus retroflexus. The note with it: 1280 g/ha; rated visually after about 3 weeks vs untreated controls; 100% = plants have died, 0% = like control plants. The method, boiled down:
as §1

Assay [10] concerns Stellaria media (STEME). Description: Pre-emergence herbicidal action against Stellaria media. To be noted: 1280 g/ha; scored visually after about 3 weeks vs untreated controls; 100% = plants have died, 0% = like control plants. The method, boiled down: as §2
Assay [11] relates to Poa annua (POAAN). The assay is described as follows: Post-emergence herbicidal action against Poa annua. To be noted: 1280 g/ha; rated visually after about 3 weeks vs untreated controls; 100% = plants have died, 0% = like control plants. An outline of the steps: as §1
In assay [12] the test system is Matricaria inodora (MATIN). The assay is described as follows: Pre-emergence herbicidal action against Matricaria inodora. The note with it: 1280 g/ha; scored visually after about 3 weeks vs untreated controls; 100% = plants have died, 0% = like control plants. The method, boiled down: as §2
The subject of a further assay is Agrostis tenuis (AGSTE). Description: Early post-emergence herbicidal action against Agrostis tenuis. To be noted: 1900 g/ha; scored visually 9 to 12 days after treatment vs untreated controls; 100% = plants have died, 0% = like control plants. The method, then:
(§4) Seeds of monocotyledonous or dicotyledonous weed plants were placed in 96-well microtiter plates in quartz sand and grown in a climatized chamber under controlled growth conditions. 5 to 7 days after sowing, the test plants were treated at the cotyledon stage. The compounds according to the invention, formulated in the form of emulsion concentrates (EC), were applied with a water application rate of the equivalent of 2200 liters per hectare. After the test plants had been left to stand in the climatized chamber for 9 to 12 days under optimum growth conditions, the effect of the preparations was scored visually in comparison to untreated controls. For example, 100% activity=the plants have died, 0% activity=like control plants. Tables A1 to A2 below show the effects of selected compounds of the general formula (I) according to Table 1 on various harmful plants and an application rate corresponding to 1,900 g/ha, which were obtained by the experimental procedure mentioned above.

Assay [13] has as its system Poa annua (POAAN). Description: Early post-emergence herbicidal action against Poa annua. The note with it: 1900 g/ha; scored visually 9 to 12 days after treatment vs untreated controls; 100% = plants have died, 0% = like control plants. How it is done:
as §4

Each structure is given as a SMILES string.

Consider `Cc1cc(C)c(Cc2ccccc2)c(Oc2ncc(F)cn2)n1` [Example I-478, 2-[(3-Benzyl-4,6-dimethyl-2-pyridyl)oxy]-5-fluoropyrimidine], for which, in the assay with Stellaria media (STEME) [1], the “Post-emergence action against Stellaria media (STEME)” value (“Post-emergence action … (STEME)” below) amounted to 100%. Also, the “Pre-emergence action against Lolium rigidum (LOLRI)” value (“Pre-emergence action … (LOLRI)” below) in the assay on Lolium rigidum (LOLRI) worked out at 100%. In assay [2], the “Pre-emergence action against Amaranthus retroflexus (AMARE)” value (from here on “Pre-emergence action … (AMARE)”) came to 100%. In addition, the “Pre-emergence action against Setaria viridis (SETVI)” value (shortened to “Pre-emergence action … (SETVI)”) with Setaria viridis (SETVI) amounted to 100%. Besides, in assay [3], the “Post-emergence action against Abutilon theophrasti (ABUTH)” value (“Post-emergence action … (ABUTH)” for short) is listed as 100%. Moreover, in assay [4], the “Pre-emergence action against Echinochloa crus-galli (ECHCG)” value (from here on “Pre-emergence action … (ECHCG)”) amounted to 100%. In addition, in the assay on Poa annua (POAAN) [5], the “Pre-emergence action against Poa annua (POAAN)” value (shortened to “Pre-emergence action … (POAAN)”) was determined as 100%. The “Pre-emergence action against Abutilon theophrasti (ABUTH)” value (shortened to “Pre-emergence action … (ABUTH)”) in assay [6] was 100%. The “Post-emergence action against Matricaria inodora (MATIN)” value (from here on “Post-emergence action … (MATIN)”) in assay [7] is on record as 90%. Besides, in [8], the “Post-emergence action against Echinochloa crus-galli (ECHCG)” value (“Post-emergence action … (ECHCG)” below) stood at 90%. The “Post-emergence action against Amaranthus retroflexus (AMARE)” value (shortened to “Post-emergence action … (AMARE)”) in assay [9] is given as 100%. Moreover, the “Pre-emergence action against Stellaria media (STEME)” value (“Pre-emergence action … (STEME)” for short) in the assay with Stellaria media (STEME) [10] amounted to 100%. For the same compound, the “Post-emergence action against Poa annua (POAAN)” value with Poa annua (POAAN) [11] was 100%. Also, the “Pre-emergence action against Matricaria inodora (MATIN)” value (“Pre-emergence action … (MATIN)” below) in assay [12] turned out to be 100%.

As for `Cc1cc(C)c(Oc2ncc(Cl)cc2F)c(Oc2ncc(F)cn2)n1` [Example I-591], the “Early post-emergence action against Agrostis tenuis (AGSTE)” value with Agrostis tenuis (AGSTE) is given as 100%. Besides, the “Early post-emergence action against Poa annua (POAAN)” value with Poa annua (POAAN) [13] worked out at 100%.

On to `Cc1cc(C)c(Oc2ncc(F)cn2)c(Oc2ncc(F)cn2)n1` [Example I-595], for which the “Early post-emergence action against Agrostis tenuis (AGSTE)” value with Agrostis tenuis (AGSTE) is reported as 100%. In the assay with Poa annua (POAAN) [13], the “Early post-emergence action against Poa annua (POAAN)” value is 100%.

On to `Cc1cc(C)c(Cc2ccc(F)cc2F)c(Oc2ncc(F)cn2)n1` [Example I-481], for which the “Post-emergence action … (STEME)” value in the assay on Stellaria media (STEME) [1] is recorded as 100%. Also, the “Pre-emergence action … (LOLRI)” value in the assay on Lolium rigidum (LOLRI) is 100%. Also, the “Pre-emergence action … (AMARE)” value in [2] is 100%. In the assay on Setaria viridis (SETVI), the “Pre-emergence action … (SETVI)” value is on record as 100%. In [3], the “Post-emergence action … (ABUTH)” value worked out at 100%. Further, in assay [4], the “Pre-emergence action … (ECHCG)” value stood at 100%. Besides, the “Pre-emergence action … (POAAN)” value in the assay with Poa annua (POAAN) [5] was determined as 100%. Also, in [6], the “Pre-emergence action … (ABUTH)” value was 100%. For the same compound, the “Post-emergence action … (MATIN)” value in assay [7] worked out at 90%. In addition, in assay [8], the “Post-emergence action … (ECHCG)” value was 100%. Further, the “Post-emergence action … (AMARE)” value in assay [9] is recorded as 100%. Besides, the “Pre-emergence action … (STEME)” value with Stellaria media (STEME) [10] is reported as 100%. Besides, in the assay on Poa annua (POAAN) [11], the “Post-emergence action against Poa annua (POAAN)” value is on record as 100%. For the same compound, in [12], the “Pre-emergence action … (MATIN)” value is on record as 100%.

`COc1cc(Cc2c(C)cc(C)nc2Oc2ncc(F)cn2)ccc1F` [Example I-487]: the “Post-emergence action … (STEME)” value with Stellaria media (STEME) [1] is 100%. The “Pre-emergence action … (LOLRI)” value in the assay on Lolium rigidum (LOLRI) is 100%. The “Pre-emergence action … (AMARE)” value in assay [2] was determined as 100%. Further, the “Pre-emergence action … (SETVI)” value in the assay on Setaria viridis (SETVI) was 100%. Also, the “Post-emergence action … (ABUTH)” value in assay [3] was 100%. Further, the “Pre-emergence action … (ECHCG)” value in [4] is 100%. Besides, the “Pre-emergence action … (POAAN)” value with Poa annua (POAAN) [5] came out at 100%. In addition, the “Pre-emergence action … (ABUTH)” value in [6] is on record as 100%. Moreover, in assay [7], the “Post-emergence action … (MATIN)” value is 100%. In addition, the “Post-emergence action … (ECHCG)” value in assay [8] stood at 100%. In addition, the “Post-emergence action … (AMARE)” value in [9] came out at 100%. Moreover, the “Pre-emergence action … (STEME)” value with Stellaria media (STEME) [10] is given as 100%. Also, the “Post-emergence action against Poa annua (POAAN)” value in the assay with Poa annua (POAAN) [11] was 100%. Besides, the “Pre-emergence action … (MATIN)” value in assay [12] is given as 100%.

For `Cc1cc(C)c(Cc2ccc(F)cc2)c(Oc2ncc(F)cn2)n1` [Example I-479], the “Post-emergence action … (STEME)” value in the assay with Stellaria media (STEME) [1] was 100%. Also, the “Pre-emergence action … (LOLRI)” value with Lolium rigidum (LOLRI) is reported as 100%. Further, the “Pre-emergence action … (AMARE)” value in assay [2] is on record as 100%. In addition, the “Pre-emergence action … (SETVI)” value with Setaria viridis (SETVI) came out at 100%. In addition, the “Post-emergence action … (ABUTH)” value in assay [3] was determined as 100%. Further, in assay [4], the “Pre-emergence action … (ECHCG)” value is reported as 100%. For the same compound, the “Pre-emergence action … (POAAN)” value in the assay on Poa annua (POAAN) [5] came out at 100%. In addition, the “Pre-emergence action … (ABUTH)” value in assay [6] is on record as 100%. Further, the “Post-emergence action … (MATIN)” value in assay [7] was determined as 100%. Besides, the “Post-emergence action … (ECHCG)” value in assay [8] is recorded as 100%. In addition, the “Post-emergence action … (AMARE)” value in assay [9] was found to be 100%. The “Pre-emergence action … (STEME)” value in the assay on Stellaria media (STEME) [10] was determined as 100%. Moreover, the “Post-emergence action against Poa annua (POAAN)” value in the assay with Poa annua (POAAN) [11] worked out at 100%. Also, in [12], the “Pre-emergence action … (MATIN)” value amounted to 100%.
